SMILES strings stand for the structures.

In publication PMC9609996, “SAR Study and Molecular Mechanism Investigation of Novel Naphthoquinone-furan-2-cyanoacryloyl Hybrids with Antitumor Activity” (Pharmaceutics, 2022) one finds inhibition data, which are given here for 21 molecules.

Assay type in all cases: cell-based, human
One assay relates to A549. Put plainly: CCK-8 anti-proliferation assay, A549. As to conditions: Homo sapiens, A549, 20 μM, mean ± SD, read-out: Inhibition Rate (%) at 20 μM A549. Here is the method: (§1) Human cervical cancer HeLa, human prostate cancer PC3, human colonic carcinoma HCT116, human lung carcinoma A549, human breast cancer MDA-MB-231, mouse melanoma B16, human ovarian cancer SKOV3, human hepatoma Hep3B, and human liver L02 cells were purchased from the Cell Bank of Shanghai Institute of Biochemistry and Cell Biology, Chinese Academy of Sciences (Shanghai, China). The HeLa, A549, B16, PC3, MDA-MB-231, HCT116, and L02 cells were cultured in Dulbecco’s modified Eagle medium (DMEM, Gibco Inc.; Gaithersburg, MD, USA). All cultures were supplied with 10% fetal bovine serum (FBS; YHSM, Beijing, China), 100 IU/mL of penicillin, and 100 μg/mL of streptomycin, and cells were incubated at 37 °C in an atmosphere of 5% CO2.
(§2) A CCK-8 kit (MCE, USA) was used to perform a CCK-8 assay. Cells were plated and grown in the 96-well plates for the indicated period (48 h) in the incubator, followed by an incubation with the CCK-8 solutions for 1–4 h. Subsequently, the absorbance (450 nm) was measured by a microplate reader. The median inhibitory concentration (IC50) was determined from the dose–response curve. Experiments were performed in a triplicate.
(Formazan colour is commonly taken as a measure of viable cells.)

The next assay has as its system HCT116. Put plainly: CCK-8 anti-proliferation assay, HCT116. As to conditions: Homo sapiens, HCT-116, 20 μM, mean ± SD, read-out: Inhibition Rate (%) at 20 μM HCT116. As for the experimental part:
as §1, §2

The test system of the next assay is PC3. In words: CCK-8 anti-proliferation assay, PC3. Conditions: Homo sapiens, PC-3, 20 μM, mean ± SD, read-out: Inhibition Rate (%) at 20 μM PC3. Here is the method:
as §1, §2

The next assay has as its system HeLa. Put plainly: CCK-8 anti-proliferation assay, HeLa. As to conditions: Homo sapiens, 20 μM, mean ± SD, read-out: Inhibition Rate (%) at 20 μM HeLa. As for the experimental part:
as §1, §2

The inhibition is the drop in the measured response relative to a control, in per cent. Turning to `N#C/C(=C\c1ccc(C2=CC(=O)c3ccccc3C2=O)o1)C(=O)N1CCc2ccccc2C1` [Compound 5b, (E)-3-(5-(1,4-dioxo-1,4-dihydronaphthalen-2-yl)furan-2-yl)-2-(1,2,3,4-tetrahydroisoquinoline-2-carbonyl)acrylonitrile], the inhibition at 20 µM is 18.4 ± 0.82% in the assay with A549, 8.83 ± 0.1% with HCT116, 17.8 ± 0.33% in the assay with PC3 and 20.5 ± 0.28% in the assay on HeLa.

On to `COc1cc(-c2ccc(C(=O)NC3CCC(F)(F)CC3)o2)c(OC)c2ccccc12` [Compound 8f, N-(4,4-difluorocyclohexyl)-5-(1,4-dimethoxynaphthalen-2-yl)furan-2-carboxamide], for which the inhibition at 20 µM came out at 28.3 ± 0.33% in the assay with A549, 27.19 ± 0.15% in the assay on HCT116, 17.72 ± 0.12% with PC3 and 30.1 ± 0.39% with HeLa.

For the molecule `COc1cc(-c2ccc(/C=C(\C#N)C(=O)NC3CCN(Cc4ccccc4)CC3)o2)c(OC)c2ccccc12` [Compound 4a, (E)-N-(1-benzylpiperidin-4-yl)-2-cyano-3-(5-(1,4-dimethoxynaphthalen-2-yl)furan-2-yl)acrylamide], the inhibition at 20 µM with A549 amounted to 16.3 ± 0.22%; in the assay on HCT116, 5.69 ± 0.23%; in the assay on PC3 it was 15.5 ± 0.17%; with HeLa, 13.6 ± 0.15%.

In the case of `COc1cc(-c2ccc(C(=O)NCc3cc(C(F)(F)F)ccc3F)o2)c(OC)c2ccccc12` [Compound 8d, 5-(1,4-Dimethoxynaphthalen-2-yl)-N-(2-fluoro-5-(trifluoromethyl)benzyl)furan-2-carboxamide], the inhibition at 20 µM was determined as 19.35 ± 0.07% in the assay with A549, 14.5 ± 0.24% in the assay with HCT116, 22.45 ± 0.05% with PC3 and 22.7 ± 0.27% with HeLa.

On to `O=C(NCCC(=O)N1CCOCC1)c1ccc(C2=CC(=O)c3ccccc3C2=O)o1` [Compound 9c, 5-(1,4-Dioxo-1,4-dihydronaphthalen-2-yl)-N-(3-morpholino-3-oxopropyl)furan-2-carboxamide], for which the inhibition at 20 µM in the assay on A549 was 15.1 ± 0.31%; in the assay with HCT116 it was 37.21 ± 0.08%; with PC3, 1.45 ± 0.86%; in the assay on HeLa, 5.91 ± 0.29%.

`COC(=O)c1ccc(-c2cc(OC)c3ccccc3c2OC)o1` [Compound 6, Methyl 5-(1,4-dimethoxynaphthalen-2-yl)furan-2-carboxylate]: the inhibition at 20 µM in the assay on A549 came to 21.3 ± 0.45%; with HCT116 it was 16.78 ± 0.07%; in the assay on PC3 it was 21.6 ± 0.83%; in the assay with HeLa, 27 ± 0.32%.

On to `COc1cc(-c2ccc(/C=C(\C#N)C(=O)NCCc3cccs3)o2)c(OC)c2ccccc12` [Compound 4d, (E)-2-cyano-3-(5-(1,4-dimethoxynaphthalen-2-yl)furan-2-yl)-N-(2-(thiophen-2-yl)ethyl)acrylamide], for which the inhibition at 20 µM with A549 worked out at 21.58 ± 0.02%; in the assay with HCT116 it was 10.8 ± 0.49%; in the assay with PC3 it was 7.17 ± 0.31%; in the assay on HeLa, 11.6 ± 0.79%.

Take `CC1(C)CC(NC(=O)/C(C#N)=C/c2ccc(C3=CC(=O)c4ccccc4C3=O)o2)CC(C)(C)N1` [Compound 5e, (E)-2-cyano-3-(5-(1,4-dioxo-1,4-dihydronaphthalen-2-yl)furan-2-yl)-N-(2,2,6,6-tetramethylpiperidin-4-yl)acrylamide]: the inhibition at 20 µM with A549 amounted to 19.8 ± 0.32%; in the assay with HCT116 it was 5.97 ± 95%; in the assay on PC3, 19.3 ± 0.28%; in the assay on HeLa, 29.73 ± 0.07%.

On to `COc1cc(-c2ccc(/C=C(\C#N)C(=O)NCc3cccc(C(F)(F)F)c3)o2)c(OC)c2ccccc12` [Compound 4g, (E)-2-cyano-3-(5-(1,4-dimethoxynaphthalen-2-yl)furan-2-yl)-N-(3-(trifluoromethyl)benzyl)acrylamide], for which the inhibition at 20 µM with A549 stood at 4.87 ± 0.3%; in the assay with HCT116, 7.69 ± 0.02%; in the assay on PC3, 15.38 ± 0.01%; in the assay with HeLa it was 16.1 ± 0.17%.

Turning to `COc1cc(-c2ccc(/C=C(\C#N)C(=O)N3CCc4ccccc4C3)o2)c(OC)c2ccccc12` [Compound 4b, (E)-3-(5-(1,4-dimethoxynaphthalen-2-yl)furan-2-yl)-2-(1,2,3,4-tetrahydroisoquinoline-2-carbonyl)acrylonitrile], the inhibition at 20 µM in the assay with A549 turned out to be 24.2 ± 0.31%; in the assay on HCT116, 19.6 ± 0.65%; in the assay with PC3 it was 3.88 ± 0.13%; with HeLa, 11.71 ± 0.04%.

Turning to `COc1cc(-c2ccc(C(=O)NCCCn3ccnc3)o2)c(OC)c2ccccc12` [Compound 8g, N-(3-(1H-imidazol-1-yl)propyl)-5-(1,4-dimethoxynaphthalen-2-yl)furan-2-carboxamide], the inhibition at 20 µM came out at 26.89 ± 0.16% in the assay with A549, 27.46 ± 0.16% in the assay on HCT116, 7.59 ± 0.72% in the assay with PC3 and 18.28 ± 0.03% in the assay with HeLa.

In the case of `COc1cc(-c2ccc(C(=O)Nc3ccc(CN4CCN(C)CC4)c(C(F)(F)F)c3)o2)c(OC)c2ccccc12` [Compound 8h, 5-(1,4-Dimethoxynaphthalen-2-yl)-N-(4-((4-methylpiperazin-1-yl)methyl)-3-(trifluoromethyl)phenyl)furan-2-carboxamide], the inhibition at 20 µM in the assay on A549 was 21.6 ± 0.39%; in the assay with HCT116, 19.6 ± 0.34%; in the assay with PC3, 16.5 ± 0.97%; in the assay with HeLa, 28.47 ± 0.1%.

With `N#C/C(=C\c1ccc(C2=CC(=O)c3ccccc3C2=O)o1)C(=O)NCCc1cccs1` [Compound 5d, (E)-2-cyano-3-(5-(1,4-dioxo-1,4-dihydronaphthalen-2-yl)furan-2-yl)-N-(2-(thiophen-2-yl)ethyl)acrylamide], the inhibition at 20 µM in the assay on A549 was 17.2 ± 0.35%; with HCT116, 26.8 ± 0.94%; in the assay with PC3 it was 15.5 ± 0.2%; in the assay on HeLa, 5.61 ± 0.24%.

Turning to `O=C(NC1CCN(Cc2ccccc2)CC1)c1ccc(C2=CC(=O)c3ccccc3C2=O)o1` [Compound 9a, N-(1-benzylpiperidin-4-yl)-5-(1,4-dioxo-1,4-dihydronaphthalen-2-yl)furan-2-carboxamide], the inhibition at 20 µM turned out to be 20.7 ± 0.49% in the assay on A549, 33.71 ± 0.13% in the assay with HCT116, 2.39 ± 0.09% with PC3 and 42.87 ± 0.22% in the assay with HeLa.

As for `COc1cc(-c2ccc(C(=O)NC3CCN(Cc4ccccc4)CC3)o2)c(OC)c2ccccc12` [Compound 8a, N-(1-benzylpiperidin-4-yl)-5-(1,4-dimethoxynaphthalen-2-yl)furan-2-carboxamide], the inhibition at 20 µM in the assay on A549 was 24.1 ± 0.35%; in the assay with HCT116, 12.4 ± 0.15%; in the assay on PC3, 15.5 ± 0.29%; in the assay on HeLa, 20.86 ± 0.18%.

For `N#C/C(=C\c1ccc(C2=CC(=O)c3ccccc3C2=O)o1)C(=O)NC1CCN(Cc2ccccc2)CC1` [Compound 5a, (E)-N-(1-benzylpiperidin-4-yl)-2-cyano-3-(5-(1,4-dioxo-1,4-dihydronaphthalen-2-yl)furan-2-yl)acrylamide], the inhibition at 20 µM in the assay with A549 was found to be 13.3 ± 0.17%; in the assay on HCT116, 8.36 ± 0.26%; with PC3 it was 3.7 ± 0.19%; in the assay with HeLa it was 10.4 ± 0.41%.

As for `COc1cc(-c2ccc(C(=O)NCCC(=O)N3CCOCC3)o2)c(OC)c2ccccc12` [Compound 8c, 5-(1,4-Dimethoxynaphthalen-2-yl)-N-(3-morpholino-3-oxopropyl)furan-2-carboxamide], the inhibition at 20 µM in the assay with A549 came to 14.1 ± 0.32%; with HCT116, 4.73 ± 0.47%; with PC3, 4.65 ± 0.56%.

Consider `COc1cc(-c2ccc(/C=C(\C#N)C(=O)N3CC4CCCCC4C3)o2)c(OC)c2ccccc12` (stereo not drawn) [Compound 4f, (E)-3-(5-(1,4-dimethoxynaphthalen-2-yl)furan-2-yl)-2-(octahydro-1H-isoindole-2-carbonyl)acrylonitrile], for which the inhibition at 20 µM in the assay on HCT116 worked out at 43.7 ± 0.84%; in the assay on PC3 it was 11.8 ± 0.79%.

As for `COc1cc(-c2ccc(C(=O)Nc3cccc(N4CCN(C)CC4)c3)o2)c(OC)c2ccccc12` [Compound 8e, 5-(1,4-Dimethoxynaphthalen-2-yl)-N-(3-(4-methylpiperazin-1-yl)phenyl)furan-2-carboxamide], the inhibition at 20 µM is 14.5 ± 0.25% in the assay with A549, 7.7 ± 0.27% in the assay on HCT116, 11.5 ± 0.17% with PC3 and 40.58 ± 0.36% with HeLa.

Take `CC(NC(=O)c1ccc(C2=CC(=O)c3ccccc3C2=O)o1)c1ccccc1` (stereo not drawn) [Compound 9b, 5-(1,4-Dioxo-1,4-dihydronaphthalen-2-yl)-N-(1-phenylethyl)furan-2-carboxamide]: the inhibition at 20 µM turned out to be 8.8 ± 0.04% with A549, 7.22 ± 0.34% in the assay on HCT116, 12.82 ± 0.01% with PC3 and 18.65 ± 0.16% in the assay on HeLa.

In the case of `COc1cc(-c2ccc(/C=C(\C#N)C(=O)NCCN3CCCC3)o2)c(OC)c2ccccc12` [Compound 4i, (E)-2-cyano-3-(5-(1,4-dimethoxynaphthalen-2-yl)furan-2-yl)-N-(2-(pyrrolidin-1-yl)ethyl)acrylamide], the inhibition at 20 µM is 13.9 ± 0.87% with A549, 29.05 ± 0.08% with HCT116, 12.29 ± 0.12% in the assay on PC3 and 35 ± 0.41% in the assay on HeLa.
